According to US20160015725A1, “METHODS OF CONTROLLING TUMOR BIOENERGETICS NETWORKS” (THE WISTAR INSTITUTE OF ANATOMY AND BIOLOGY, priority 2012, published 2016):

Assays:
[1] = tested on: FF2508 or MRC5 normal primary human fibroblasts; test: ATP production in normal fibroblasts; type: cell-based
Protocol: (§1) Intracellular ATP concentrations were measured by the luciferin—luciferase method using an ATP measuring kit (Biochain). The ATP concentration in each extract was measured with a microplate luminometer (Beckman Coulter) against standard ATP solutions used as reference. In some experiments, PC3 or LN229 cells were preincubated with sodium pyruvate for 7 h in the presence of vehicle or Gamitrinib before determination of ATP production.

[2] = tested on: mTORC1; test: mTORC1 signaling in tumor cells, Western blotting; type: cell-based, human
[3] = tested on: multiple tumor cell types; test: ATP production in tumor cells (luciferin-luciferase); type: cell-based, human
Protocol: as §1

[4] = tested on: mutant BRAF melanoma cells; test: 3D organotypic spheroids, mutant BRAF; type: cell-based, human; settings: collagen-embedded, 72 h
Protocol: (§2) For analysis of tumor cell survival in 3D organotypic cultures, melanoma spheroids were prepared as previously described. Briefly, 50 μl aliquots of the various melanoma cell types (5×10^4 cells/ml) were seeded onto 96-well plates coated with 1.5% agar (Difco, Sparks, Md.) in PBS. Spheroids were allowed to form for 72 h and then embedded in 100 μl of bovine collagen type I (Organogenesis, Canton, Mass.). Spheroids were overlaid with 100 μl of Tu2% growth medium and treated with inhibitors for 72 hours. Quantification of live vs. dead cells under the various conditions tested was performed by staining the melanoma spheroids after 72 h of treatment with calcein-AM (live) and Topro-3 (dead) (Invitrogen) for 1 h (data not shown).

[5] = tested on: WT BRAF melanoma cells; test: AMPK and autophagy signaling in WT BRAF melanoma cells; type: cell-based, human
Description: (§3) Human glioblastoma LN229, prostate adenocarcinoma PC3 or LNCaP cells, or normal NIH3T3 fibroblasts were obtained from the American Tissue Culture Collection (ATCC, Manassas, Va.), and maintained in culture according to the supplier's specifications. The following wild type (WT) BRAF N-Ras mutant melanoma cells WM852 and WM1366, and melanoma cells carrying a V600E activating mutation in the BRAF oncogene, 451Lu, Me11617 and WM983B were used in this study. WT or CypD knockout Mouse Embryonic Fibroblasts (MEFs, CypD−/−) were characterized earlier 40. In some experiments, CypD−/− MEFs were stably transfected with control plasmid, WT CypD or peptidyl prolyl isomerase (PPIase)-deficient H168Q CypD mutant cDNA, and analyzed for differential recruitment of HK-II to mitochondrial or cytosolic fractions.
(§4) For Western blotting, protein lysates were prepared from the different cell types in RIPA Buffer (150 mM NaCl, 1.0% Triton X-100, 0.5% sodium deoxycholate, 0.1% SDS, 50 mM Tris, pH 8.0) containing EDTA-free Protease Inhibitor Cocktail (Roche) and Phosphatase Inhibitor Cocktail 2 and 3 (Sigma Aldrich). Equal amounts of protein lysates were separated by SDS gel electrophoresis, transferred to PVDF membranes and incubated with primary antibodies of various specificities. Protein bands were detected by chemiluminescence.
(§5) Samples were imaged using a Leica TCS SP2 confocal microscope. For determination of autophagy, cells under the various conditions tested were harvested after 12 h, and analyzed with an antibody to […] (LC3) by Western blotting.

[6] = tested on: V600E mutant BRAF melanoma cells; test: AMPK and autophagy signaling in mutant BRAF melanoma cells; type: cell-based, human
Description: as §3, §4, §5

[7] = tested on: NIH3T3 fibroblasts; test: ATP production and AMPK/mTORC1 phosphorylation in non-transformed cells; type: cell-based
Protocol: as §4, §1

[8] = tested on: TRAMP mice prostate; test: Immunohistochemistry of TRAMP prostate tissues; type: in vivo, mouse; settings: PIN lesions
Protocol: The preclinical studies to test the efficacy and safety of Gamitrinib in a genetic mouse model of prostate cancer in immunocompetent TRAMP (Transgenic Adenocarcinoma of the Mouse Prostate) mice have been described (Kang et al., 2011). In this model, Gamitrinib was given systemically (5 mg/kg i.p. with the schedule 3 d on/2 d off) to TRAMP mice starting at 21.9 weeks of age (group 1) or 14.7 weeks of age (group 2), for 3 weeks or 5 weeks, respectively. In the control group, TRAMP mice of 24 weeks of age received vehicle. At the end of the experiment, animals in the vehicle or Gamitrinib groups were sacrificed and analyzed for localized and metastatic prostate cancer of adenocarcinoma or neuroendocrine histologic type (Kang et al., 2011).
For analysis of patient-derived or TRAMP tissues, slides were microwaved for 35 min in EDTA solution. Sections (4-μm thick) were cut from all TMA blocks and TRAMP-derived prostatic tumors and stained with a rabbit polyclonal antibody to Grp78 (1:1000) for 30 min at 22° C. IHC was performed using a Ventana BenchMark Ultra autostainer (Ventana Medical Systems), with the ultraView Universal DAB Detection Kit (Ventana) for detection of antibody reactivity. All slides were counterstained with hematoxylin Immunoreactivity for Grp78 was evaluated by two pathologists (S.F. and S.B.) and independently scored for cytoplasmic localization. When discrepancies in scoring occurred, a consensus interpretation was reached after re-examination. The percentage of immunoreactive epithelial cells was determined and assigned to one of the following four categories: 0, (0%); 1, (1%-9%); 2, (10%-49%) and 3, (50%-100%). The intensity of immunostaining was scored as absent (0), mild (1), moderate (2) or strong (3). In the case of TMA, the two parameters were multiplied to generate a weighted score for each case that ranged from 0 to 9. Cases with weighted score 0 were defined as negative. Among AdCa samples in the series under investigation, 17 cases were negative for Grp78 expression, whereas 0 cases of SCC were Grp78-negative. […]

[9] = tested on: tumor cells; test: Autophagy (LC3 conversion, LC3-CFP puncta); type: cell-based, human
Protocol: LN229 cells were transfected with various siRNAs, and mixed after 24 h with plasmid encoding cyan fluorescent protein (CFP) fused to human […] (LC3) cDNA in the presence of Lipofectamine 2000 Transfection Reagent (Invitrogen). After 48 h, transfected cells were fixed in 4% paraformaldehyde for 15 min at 37° C., washed, and examined by fluorescence microscopy (Nikon, E600). The numbers of CFP-LC3 punctate dots per cell was determined from three independent experiments. A minimum of 50 CFP-LC3-positive cells assessed from at least ten random fields per sample were counted in triplicate per each condition.
as §5

[10] = tested on: WT BRAF spheroids; test: 3D organotypic spheroids, WT BRAF; type: cell-based, human; settings: collagen-embedded, 72 h
Protocol: as §2

Compound: CO[C@H]1/C=C\C=C(/C)C(=O)NC2=CC(=O)C(NCCCCCC[P+](c3ccccc3)(c3ccccc3)c3ccccc3)=C(C[C@@H](C)C[C@H](OC)[C@H](O)[C@@H](C)/C=C(\C)[C@@H]1OC(N)=O)C2=O [Gamitrinib]
- ATP production [1]: did not change ATP production
- phosphorylation of mTOR, 4EBP1 and p70S6 (mTORC1) [2]: concentration dependent suppression of phosphorylation of mTOR, and its downstream kinases 4EBP1 and p70S6
- time to inhibition of ATP production ([3]; multiple tumor cell types): ≤ 5 h
- ATP production ([3]; tumor cell types, non-cytotoxic concentrations, 5 h): concentration-dependent inhibition of ATP production
- cell killing in 3D spheroids [4]: efficiently killed
- concentrations that killed cells in 3D spheroids [4]: 1 to 3 µM
- autophagy ([5]; WT BRAF cells): stimulated autophagy
- AMPK phosphorylation ([5]; WT BRAF melanoma cells): induced AMPK phosphorylation
- autophagy ([6]; BRAF mutant cells): did not adaptively increase autophagy
- AMPK activation ([6]; BRAF mutant melanoma cells): failed to activate AMPK
- ATP production, AMPK or mTORC1 phosphorylation [7]: did not affect ATP production, or AMPK or mTORC1 phosphorylation
- GRP78 expression [8]: upregulation of GRP78
- autophagy, LC3 conversion [8]: induction of autophagy, i.e. LC3 conversion
- phosphorylated AMPK expression [8]: increased expression of phosphorylated AMPK
- autophagy (LC3-II conversion) [9]: strongly activated autophagy
- cell death in 3D spheroids [10]: resistant to cell death
